Data on one compound can be found in patent US20200289566A1, “COMPOSITIONS FOR IMPROVING CAR-T CELL FUNCTIONALITY AND USE THEREOF” (PROSPECT CHARTERCARE RWMC, LLC D/B/A ROGER WILLIAMS MEDICAL …, priority 2017, published 2020).

What all share (type): cell-based, human
The subject of assay [1] is IL13Rα2-Fc activated IL13CAR-T cells. Nature of the assay: T cell memory marker expression by flow cytometry. As to conditions: 7 days. On the procedure: (§1) Purified rat anti-human IL13 antibody and allophycocyanin (APC)-conjugated anti-rat antibody was used to measure IL13CAR expression. Anti-human CD3-FITC was used in certain experiments for identifying T cells. For CD4:CD8 analysis of IL13CAR-T cells, anti-human CD4-FITC and anti-human CD8-PE.Cy7 were used in CAR-T cells that were positive for IL13CAR expression. FasL expression and PD-1 expression on activated IL13CAR-T cells was measured by staining with anti-human FasL-FITC (Thermo-Fisher) anti-human PD1-FITC respectively. Anti-human CD127-FITC, anti-human CD62L-PE, Anti-human CCR7-FITC anti-human CD45RO-PE and anti-human CD45RA-PE.Cy7 were used for flow cytometric measurement of T cell memory marker. Respective isotype controls or antibody controls (where applicable) were used to draw positive gates for each experiment. All antibodies were procured from either BD Biosciences or eBisociences. For intranuclear staining of β-catenin localization, nuclear permeabilization of CAR-T cells was achieved using FoxP3 staining buffer (eBioscience-Affymetrix, San Diego, Calif.) and staining with anti-human β-catenin rabbit mAb (Cell Signaling Technologies, Danvers Mass.) and anti-rabbit IgG conjugated with Alexa Fluor (AF) 488 or 647 (Cell Signaling Technologies).
Experiments were conducted to test the effects of SB216763 treatment on memory generation in IL13Rα2-Fc activated IL13CAR-T populations. IL13CAR-T cells were activated with increasing concentrations of IL13Rα2-Fc (0-1 μg/ml) in the presence or absence of SB216763 for 7 days. Cell surface expression of T cell memory markers were measured by flow cytometry. Since memory generation was monitored as a functional derivative of CD8+ T cells, experiments were conducted to additionally measure the intracellular expression of IL7R (CD127) expression as a marker of CD8+ memory CAR-T cell homeostasis.
In general terms: A flow cytometer gives signals particle by particle.

The test system is the same in assay [2]. Nature of the assay: Activated T cell death (ATCD): flow cytometric FasL expression. On the procedure: Purified rat anti-human IL13 antibody and allophycocyanin (APC)-conjugated anti-rat antibody was used to measure IL13CAR expression. Anti-human CD3-FITC was used in certain experiments for identifying T cells. For CD4:CD8 analysis of IL13CAR-T cells, anti-human CD4-FITC and anti-human CD8-PE.Cy7 were used in CAR-T cells that were positive for IL13CAR expression. FasL expression and PD-1 expression on activated IL13CAR-T cells was measured by staining with anti-human FasL-FITC (Thermo-Fisher) anti-human PD1-FITC respectively. […]
Untransduced or IL13CAR-T cells (1×10^6) were activated with IL13Rα2-Fc chimera at specific concentrations in 24 well plates, with or without GSK3β inhibitor (SB216763, 20 μM; Sigma, St Louis, Mo.) or added IL2 in the culture medium. […] Long-time survival of IL13CAR-T cells following GSK3β inhibition was measured by flow cytometry using live-dead gating (Sengupta et al., Immunobiology 210: 647-659, 2005). Activated T cell death (ATCD) was measured by flow cytometric reading of FasL expression (FITC; Thermo-Fisher) on activated IL13CAR-T cells.
IL13CAR-T cells (32% CAR+) were cultured for 14 days in the presence of soluble IL13Rα2-Fc (1 μg/ml) and GSK3β inhibitor (SB216763; 20 μM) in RPMI1640 medium supplemented with 10% FBS and antibiotics, with or without added IL2. […] To confirm this phenomenon FasL expression was measured in IL13Rα2-Fc treated CAR-T cells at day 14. […]

The test system of assay [3] is IL13Rα2-Fc activated CAR-T cells. Nature of the assay: Intranuclear β-catenin accumulation by flow cytometry. To be noted: 36-48 hours. On the procedure:
as §1, with “For intranuclear staining of β-catenin localization, nuclear permeabilization of CAR-T cells was achieved using FoxP3 staining buffer (eBioscience-Affymetrix, San Diego, Calif.) and staining with anti-human β-catenin rabbit mAb (Cell Signaling Technologies, Danvers Mass.) and anti-rabbit IgG conjugated with Alexa Fluor (AF) 488 or 647 (Cell Signaling Technologies).” left out
Experiments were conducted to understand the molecular mechanism of GSK3β-inhibition on activated T cell expansion. […] IL13Rα2-Fc activated CAR-T cells were treated with or without SB216763 for 36-48 hours and measured for intra-nuclear accumulation of β-catenin by flow cytometry. […]

In assay [4] the test system is IL13Rα2-activated IL13CAR-T cells. Nature of the assay: Flow cytometry of T-bet and PD-1 expression. On the procedure: as §1
(§2) GSK3 inhibition reduces PD-1 mediated T cells exhaustion, which is dependent on T-bet expression (Taylor et al., Immunity 44: 274-286. 2016), and GSK3β pathway directly regulates T-bet expression in activated T cells (Verma et al., J Immunol 197: 108-118, 2016). Significant survival advantage of GSK3β inhibition in activated T cells prompted us to study T-bet and PD-1 expression in IL13Rα2-activated IL13CAR-T cells.

Assay [5] has as its system IL13Rα2-Fc activated IL13CAR-T cells. Nature of the assay: T cell survival assay (viability by flow cytometry, live-dead gating, 14 days). To be noted: SB216763 20 μM, IL13Rα2-Fc 1 μg/ml, absence of added IL2. On the procedure: Untransduced or IL13CAR-T cells (1×10^6) were activated with IL13Rα2-Fc chimera at specific concentrations in 24 well plates, with or without GSK3β inhibitor (SB216763, 20 μM; Sigma, St Louis, Mo.) or added IL2 in the culture medium. IL13CAR-T cell survival assays were performed as described above for 14 days. Long-time survival of IL13CAR-T cells following GSK3β inhibition was measured by flow cytometry using live-dead gating (Sengupta et al., Immunobiology 210: 647-659, 2005). Activated T cell death (ATCD) was measured by flow cytometric reading of FasL expression (FITC; Thermo-Fisher) on activated IL13CAR-T cells.
IL13CAR-T cells (32% CAR+) were cultured for 14 days in the presence of soluble IL13Rα2-Fc (1 μg/ml) and GSK3β inhibitor (SB216763; 20 μM) in RPMI1640 medium supplemented with 10% FBS and antibiotics, with or without added IL2. Cells were harvested at days 1, 4, 7, 10 and 14 and stained for CD3 and IL13CAR expression, and viability of cells were measured by flow cytometry and analyzed for viability as described earlier. […] The loss in viability was rescued by addition of IL2 in culture conditions (FIG. 1A; Top Panel; close squares) or inhibition of GSK3β with SB216763 in absence of added IL2 (FIG. 1A; Bottom Panel; open squares). […] To confirm this phenomenon FasL expression was measured in IL13Rα2-Fc treated CAR-T cells at day 14. […]

The subject of assay [6] is IL13CAR-T cells. Nature of the assay: CFSE dilution T cell proliferation assay. As to conditions: 72 hours. How it is done:
Carboxyfluorescein succinimidyl ester (CFSE; 0.5 μg/ml; Invitrogen) was used to measure T cell proliferation by flow cytometry.
To further understand the mechanism, CAR-T cells were stained with CFSE and were cultured either unstimulated or treated with IL13Rα2-Fc±SB216763 for 72 hours. CFSE is a fluorescent cell staining dye and can be used to monitor lymphocyte proliferation, both in vitro and in vivo, due to the progressive halving of CFSE fluorescence within daughter cells following each cell division (Lyons et al., Journal of immunological methods 171: 131-137, 1994).

In assay [7] the test system is IL13Rα2-Fc activated IL13CAR-T cells. Nature of the assay: qPCR of TBX21, PDCD1 and IFNG genes. As to conditions: normalized to GAPDH. On the procedure: Total RNA was isolated from IL13CAR-T cells using the RNeasy Mini Kit according to the manufacturer's protocol (Qiagen). cDNA was prepared from RNA using iScript cDNA Synthesis Kit (Biorad, Carlsbad, Calif.). qPCR was performed targeting IFNG, TBX21, and PDCD1 genes using SyBR Green PCR master Mix (Applied Biosystems). CT values of target genes were normalized to that of housekeeping gene GAPDH, and relative gene expression was calculated using ΔΔCT method.
as §2

On to `Cn1cc(C2=C(c3ccc(Cl)cc3Cl)C(=O)NC2=O)c2ccccc21` [SB216763, 3-(2,4-Dichlorophenyl)-4-(1-methyl-1H-indol-3yl)-1H-pyrrole-2,5-dione], for which, in assay [1], the CCR7 expression result is given as “no difference”, the CD45RA expression result is reported as “no difference” and the CD62L expression entry is reported as “complete inhibition”. In assay [1] (IL13Rα2-Fc 0-1 μg/ml), the “increase in CD45RO” value came out at 4 fold and the “increase in CD127” value came to 10 fold. Moreover, the “frequency of activated CAR-T cells expressing FasL” value in assay [2] (day 14, SB216763 treated) amounted to 25.3%. In addition, in assay [2] (day 14, versus activated CAR-T cells not treated with the inhibitor), the “reduction of FasL expression” value is on record as 55%. Further, the “nuclear β-catenin MFI” value in assay [3] (SB216763 treated) is given as 1618 MFI. For the same compound, the “increased accumulation of β-catenin in the nucleus” value in assay [3] (versus untreated activated CAR-T cells) was determined as 66%. Further, the “T-bet expression (FACS)” value in assay [4] (activated IL13CAR-T cells, GSK3β inhibition) is “significant upregulation”. Also, the “frequency of PD-1+ IL13CAR-T cells” value in assay [4] (activated, GSK3β inhibited) worked out at 17.3%. Further, the “reduction in PD-1 expression” value in assay [4] (versus activated IL13CAR-T cells not treated) worked out at 60%. Also, in assay [5], the “loss in viability of activated IL13CAR-T cells” value is given as “rescued”. Besides, in assay [6], the “proliferation of IL13Rα2-Fc activated CAR-T cells” value was “increased proliferation” and the “proliferation of unstimulated CAR-T cells” value is “no such efforts”. In assay [7], the “decrease in PDCD1 (PD-1) gene expression” value is 5 fold and the “increase in TBX21 (T-bet) gene expression” value was 90 fold.
